Reference: paper PMC12116161, “An Elastase Inhibitor ShSPI from Centipede Attenuates Bleomycin-Induced Pulmonary Fibrosis” (Toxins, 2025)
Where a SMILES comes first, the peptide text is derived from it. Bridges are numbered along the chain shown (N, C = ends).

Columns and labels:
[1] = tested on: BLM-induced idiopathic pulmonary fibrosis (IPF) mouse model; assay: Body weight changes in BLM-induced IPF mouse model; assay type: in vivo, ICR mice; details: tracheal spray once daily for 7 days, BLM-induced IPF mice
Protocol: (§1) Animal Model Preparation: The peptide powder was dissolved in pre-cooled saline and filtered to remove bacteria, then a spray needle was attached to a micro-syringe to aspirate the peptide solution. A total of 56 ICR mice were anesthetized by intramuscular injection of avertin. After anesthesia, the mice were fixed supine, the tongue was gently pulled, the vocal folds were exposed with a laryngoscope, the trachea was gently inserted, and the nebulized solution was rapidly pushed and injected. Each mouse was administered 100 μL of a 0.4 mg/mL bleomycin solution via tracheal spray, with the treatment performed once. Seven days after modeling, the mice were randomly grouped for ShSPI treatment based on weight loss scores. An additional 8 mice received the vehicle (normal saline) and were designated as the sham group.
(§2) A total of 48 suitable mice were randomly divided into five groups: the model control group (MC), the positive control group (PC), and the ShSPI low-dose groups (1 mg/kg), medium-dose groups (2 mg/kg), and high-dose groups (4 mg/kg).
Drug Administration: Starting on day 7 post-modeling, ShSPI peptide treatment groups were anesthetized with intramuscular avertin and received tracheal spray administration of the peptide. […]
Body Weight Monitoring: The body weight of the mice was monitored and recorded from the modeling phase to the end of treatment (a total of two weeks).

[2] = tested on: BLM-induced idiopathic pulmonary fibrosis (IPF) mouse model; assay: Histopathologic analysis of the lungs (H&E and Masson staining) of IPF mice; assay type: in vivo, ICR mice
Protocol: as §1, §2
Drug Administration: Starting on day 7 post-modeling, ShSPI peptide treatment groups were anesthetized with intramuscular avertin and received tracheal spray administration of the peptide. The low-dose group was treated with 1 mg/kg ShSPI peptide, the medium-dose group with 2 mg/kg, and the high-dose group with 4 mg/kg. The positive control group, without anesthesia, received 200 mg/kg pirfenidone (IPFD) via oral gavage. All groups were treated once daily for seven consecutive days.
Sample Collection: Twenty-four hours after the final treatment, all ICR mice were euthanized via intramuscular injection of suforane. […]
The samples from experiment 4.1 were then processed using standard protocols for paraffin embedding, and 5 μm thick paraffin sections were prepared. […] Multiple fields were randomly selected, and the severity of alveolar inflammation in each group was quantified according to criteria such as the area of tissue affected by inflammation. […]

ICR healthy mice = assay: Single administration toxicity study: hematological examination; assay type: in vivo; details: single airway spray, day 14 post-dose, EDTA whole blood, automated hematology analyzer, mean ± s
Protocol: Specific pathogen-free (SIPF) grade ICR healthy mice (with an equal number of males and females, procured from Hunan Slaughter King Laboratory Animal Co., Changsha, China) were randomly divided into four experimental groups and received ShSPI via airway spray at doses of 0 mg/kg (control), 40 mg/kg, 80 mg/kg, or 160 mg/kg in a single administration. Following treatment, the mice were monitored for a 14-day observation period. On the fourteenth day, blood plasma samples were collected for precise measurement and analysis of hematological and biochemical parameters. The specific process is as follows.
On day 14 post-dose, approximately 1.7–2.0 mL of whole blood was collected for hematological and biochemical analyses. Hematological parameters were assessed using an automated hematology analyzer, while biochemical parameters were evaluated with an automated biochemistry analyzer. Prior to blood collection, all mice were fasted for at least 12 h. For hematological analysis, 200 μL of whole blood was immediately transferred into EDTA-containing tubes. For biochemical analysis, 1.5 mL of whole blood was placed into serum separator tubes without anticoagulant and centrifuged to isolate serum.

[3] = ShSPI tracheal spray once daily for 7 days

`CC[C@H](C)[C@@H]1NC(=O)[C@H](C)NC(=O)[C@@H]2CCCN2C(=O)[C@@H]2CSSC[C@H](NC(=O)[C@H](CO)NC(=O)[C@H](CC(N)=O)NC(=O)[C@H](CO)NC(=O)[C@H](Cc3ccc(O)cc3)NC(=O)[C@H](CCSC)NC(=O)[C@H](CCCNC(=N)N)NC(=O)CNC(=O)[C@H](Cc3ccccc3)NC(=O)[C@H](CCC(=O)O)NC(=O)[C@H](CC(=O)O)NC(=O)[C@H](Cc3ccccc3)NC(=O)[C@H](C(C)C)NC(=O)[C@@H]3CCCN3C(=O)[C@H](CCC(N)=O)NC(=O)[C@H](Cc3ccc(O)cc3)NC1=O)C(=O)N[C@@H](CCC(=O)O)C(=O)N[C@@H](CCSC)C(=O)N[C@@H](CCC(N)=O)C(=O)N[C@@H](CCCNC(=N)N)C(=O)N[C@@H](C)C(=O)N[C@@H](CCCNC(=N)N)C(=O)N[C@H](C(=O)N[C@@H](CC(C)C)C(=O)N[C@@H](CCCNC(=N)N)C(=O)NCC(=O)O)CSSC[C@H](N)C(=O)N1CCC[C@H]1C(=O)N[C@@H](CCC(N)=O)C(=O)N[C@@H](C(C)C)C(=O)N2` [ShSPI] (H-CPQVCPAIYQPVFDEFGRMYSNSCEMQRARCLRG-OH; disulfide 1-31, 5-24; N-terminus and C-terminus assumed) was tested, and the body weight recovery ([1]; ShSPI low-dose group (1 mg/kg)) was “upward trend, albeit with a slower recovery rate”, the body weight recovery ([1]; ShSPI medium- and high-dose groups (2 and 4 mg/kg)) was “comparable to that of the positive control group” and the “effect on the model's damage (fibrotic lesions)” value ([2]; ShSPI 1 mg/kg tracheal spray once daily for 7 days, compared with 2 and 4 mg/kg) was “less effective”. For the same compound, the “collagen deposition in the lungs (Masson staining)” value [2, 3] was “substantial inhibition”, the “lung inflammation (H&E staining)” value [2, 3] was “substantial reduction” and the Bas (ICR healthy mice; 40 mg/kg ShSPI, n = 6) was 0.02 ± 0.01 10^9/L. The Bas% (ICR healthy mice; 40 mg/kg ShSPI, n = 6) was 0.35 ± 0.28%, the Eos (ICR healthy mice; 40 mg/kg ShSPI, n = 6) was 0.09 ± 0.05 10^9/L and the HCT (ICR healthy mice; 40 mg/kg ShSPI, n = 6) was 36.98 ± 1.32%. The HGB (ICR healthy mice; 40 mg/kg ShSPI, n = 6) was 123.50 ± 5.64 g/L, the Lym (ICR healthy mice; 40 mg/kg ShSPI, n = 6) was 6.40 ± 2.49 10^9/L and the Lym% (ICR healthy mice; 40 mg/kg ShSPI, n = 6) was 78.20 ± 2.18%. The MCH (ICR healthy mice; 40 mg/kg ShSPI, n = 6) was 15.86 ± 0.43 pg, the MCHC (ICR healthy mice; 40 mg/kg ShSPI, n = 6) was 333.50 ± 3.98 g/L and the MCV (ICR healthy mice; 40 mg/kg ShSPI, n = 6) was 47.56 ± 0.95 fL. The MPV (ICR healthy mice; 40 mg/kg ShSPI, n = 6) was 5.35 ± 0.18 fL, the Mon (ICR healthy mice; 40 mg/kg ShSPI, n = 6) was 0.28 ± 0.13 10^9/L and the Mon% (ICR healthy mice; 40 mg/kg ShSPI, n = 6) was 3.35 ± 0.74%. For the same compound, the Neu (ICR healthy mice; 40 mg/kg ShSPI, n = 6) was 1.41 ± 0.69 10^9/L, the Neu% (ICR healthy mice; 40 mg/kg ShSPI, n = 6) was 16.78 ± 1.90% and the PCT (ICR healthy mice; 40 mg/kg ShSPI, n = 6) was 0.71 ± 0.04%. For the same compound, the PDW (ICR healthy mice; 40 mg/kg ShSPI, n = 6) was 15.21 ± 0.17, the PLT (ICR healthy mice; 40 mg/kg ShSPI, n = 6) was 1326.50 ± 494.34 10^9/L and the RBC (ICR healthy mice; 40 mg/kg ShSPI, n = 6) was 7.78 ± 0.23 10^12/L. For the same compound, the RDW-CV (ICR healthy mice; 40 mg/kg ShSPI, n = 6) was 12.70 ± 0.76%, the RDW-SD (ICR healthy mice; 40 mg/kg ShSPI, n = 6) was 26.68 ± 1.26 fL and the WBC (ICR healthy mice; 40 mg/kg ShSPI, n = 6) was 8.22 ± 3.30 10^9/L. The Bas (ICR healthy mice; 80 mg/kg ShSPI, n = 6) was 0.03 ± 0.04 10^9/L, the Bas% (ICR healthy mice; 80 mg/kg ShSPI, n = 6) was 0.56 ± 0.60% and the Eos (ICR healthy mice; 80 mg/kg ShSPI, n = 6) was 0.22 ± 0.20 10^9/L. It also gave an Eos% (ICR healthy mice; 80 mg/kg ShSPI, n = 6) of 3.10 ± 2.15%, an HCT (ICR healthy mice; 80 mg/kg ShSPI, n = 6) of 35.93 ± 2.11% and an HGB (ICR healthy mice; 80 mg/kg ShSPI, n = 6) of 120.33 ± 6.83 g/L. For the same compound, the Lym (ICR healthy mice; 80 mg/kg ShSPI, n = 6) was 4.66 ± 1.68 10^9/L, the Lym% (ICR healthy mice; 80 mg/kg ShSPI, n = 6) was 68.93 ± 6.78% and the MCH (ICR healthy mice; 80 mg/kg ShSPI, n = 6) was 16.08 ± 0.40 pg. The MCHC (ICR healthy mice; 80 mg/kg ShSPI, n = 6) was 335.33 ± 6.28 g/L, the MCV (ICR healthy mice; 80 mg/kg ShSPI, n = 6) was 47.95 ± 0.38 fL and the MPV (ICR healthy mice; 80 mg/kg ShSPI, n = 6) was 5.48 ± 0.48 fL. The Mon (ICR healthy mice; 80 mg/kg ShSPI, n = 6) was 0.38 ± 0.05 10^9/L, the Neu (ICR healthy mice; 80 mg/kg ShSPI, n = 6) was 1.35 ± 0.40 10^9/L and the Neu% (ICR healthy mice; 80 mg/kg ShSPI, n = 6) was 21.23 ± 5.92%. The PCT (ICR healthy mice; 80 mg/kg ShSPI, n = 6) was 0.69 ± 0.09%, the PDW (ICR healthy mice; 80 mg/kg ShSPI, n = 6) was 15.33 ± 0.10 and the PLT (ICR healthy mice; 80 mg/kg ShSPI, n = 6) was 1272 ± 206.81 10^9/L. For the same compound, the RBC (ICR healthy mice; 80 mg/kg ShSPI, n = 6) was 7.49 ± 0.34 10^12/L, the RDW-CV (ICR healthy mice; 80 mg/kg ShSPI, n = 6) was 12.18 ± 0.22% and the RDW-SD (ICR healthy mice; 80 mg/kg ShSPI, n = 6) was 25.75 ± 1.03 fL. The WBC (ICR healthy mice; 80 mg/kg ShSPI, n = 6) was 6.66 ± 2.04 10^9/L, the Mon% (ICR healthy mice; 80 mg/kg ShSPI, n = 6, * p < 0.05 vs blank control) was 6.16 ± 1.76 * % and the Bas (ICR healthy mice; 160 mg/kg ShSPI, n = 6) was 0.02 ± 0.01 10^9/L. The Bas% (ICR healthy mice; 160 mg/kg ShSPI, n = 6) was 0.20 ± 0.12%, the Eos (ICR healthy mice; 160 mg/kg ShSPI, n = 6) was 0.21 ± 0.19 10^9/L and the Eos% (ICR healthy mice; 160 mg/kg ShSPI, n = 6) was 1.85 ± 1.23%. The HCT (ICR healthy mice; 160 mg/kg ShSPI, n = 6) was 37.81 ± 1.30%, the HGB (ICR healthy mice; 160 mg/kg ShSPI, n = 6) was 126.66 ± 4.36 g/L and the Lym (ICR healthy mice; 160 mg/kg ShSPI, n = 6) was 8.63 ± 2.79 10^9/L. The Lym% (ICR healthy mice; 160 mg/kg ShSPI, n = 6) was 75.90 ± 6.54%, the MCH (ICR healthy mice; 160 mg/kg ShSPI, n = 6) was 16.05 ± 0.40 pg and the MCHC (ICR healthy mice; 160 mg/kg ShSPI, n = 6) was 335.33 ± 4.13 g/L. For the same compound, the MCV (ICR healthy mice; 160 mg/kg ShSPI, n = 6) was 47.86 ± 65 fL, the MPV (ICR healthy mice; 160 mg/kg ShSPI, n = 6) was 5.21 ± 0.21 fL and the Mon (ICR healthy mice; 160 mg/kg ShSPI, n = 6) was 0.42 ± 0.21 10^9/L. The Mon% (ICR healthy mice; 160 mg/kg ShSPI, n = 6) was 3.58 ± 0.74%, the Neu (ICR healthy mice; 160 mg/kg ShSPI, n = 6) was 2.23 ± 1.28 10^9/L and the Neu% (ICR healthy mice; 160 mg/kg ShSPI, n = 6) was 18.46 ± 5.30%. For the same compound, the PCT (ICR healthy mice; 160 mg/kg ShSPI, n = 6) was 0.78 ± 0.07%, the PDW (ICR healthy mice; 160 mg/kg ShSPI, n = 6) was 15.21 ± 0.07 and the PLT (ICR healthy mice; 160 mg/kg ShSPI, n = 6) was 1511.2 ± 178.44 10^9/L. For the same compound, the RBC (ICR healthy mice; 160 mg/kg ShSPI, n = 6) was 7.90 ± 0.31 10^12/L, the RDW-CV (ICR healthy mice; 160 mg/kg ShSPI, n = 6) was 12.83 ± 0.74% and the RDW-SD (ICR healthy mice; 160 mg/kg ShSPI, n = 6) was 27.20 ± 1.81 fL. For the same compound, the WBC (ICR healthy mice; 160 mg/kg ShSPI, n = 6) was 11.5 ± 4.13 10^9/L.
